{
  "source": "patent US20050197350A1",
  "about": "“Novel quinoline, tetrahydroquinazoline, and pyrimidine derivatives and methods of treatment related to the use thereof” (TAISHO PHARMACEUTICAL CO., LTD., priority 2003, published 2005)",
  "data": [
    {"test_system": "MCH receptors", "assay": "MCH receptor activity class (method not given)", "details": "not given", "values": [
      {"smiles": "Cc1cc(N[C@H]2CC[C@@H](NC(=O)c3ccc(F)cc3)CC2)nc2ccccc12", "note": "[Example 2545, 4-fluoro-N-{cis-4-[(4-methylquinolin-2-yl)amino]cyclohexyl}benzamide]", "class": 1}
    ]},
    {"test_system": "MCH receptors", "assay": "MCH receptor activity class (method not given)", "details": "MCH receptor activity class 1-3 (percent of control at 10^-7 M or IC50)", "values": [
      {"smiles": "Cc1cccc(C)c1NC(=O)NC[C@H]1CC[C@@H](Nc2nccc(N(C)C)n2)CC1", "note": "[compound 2406, N-[(cis-4-{[4-(dimethylamino)pyrimidin-2-yl]amino}cyclohexyl)methyl]-N′-(2,6-dimethylphenyl)urea]", "class": "1 (Class 1: The value of percent of control at 10^−7 M was less than 40% or the value of IC50 was less than 50 nM.)"},
      {"smiles": "Cc1cc(F)ccc1NC(=S)N[C@H]1CC[C@@H](Nc2cc(N(C)C)c3ccccc3n2)CC1", "note": "[compound 2295]", "class": "3 (Class 3 The value of percent of control at 10^−7 M was more than 60% or the value of IC50 was more than 200 nM.)"}
    ]},
    {"test_system": "MCH receptors", "assay": "MCH receptor activity class (method not given)", "details": "MCH receptor; class by percent of control at 10^-7 M or IC50", "values": [
      {"smiles": "COc1ccc(Cl)cc1NC(=S)N[C@H]1CC[C@@H](Nc2nc3c(c(N(C)C)n2)CCCC3)CC1", "note": "[compound 2023]", "class": "3 (Class 3 The value of percent of control at 10^−7 M was more than 60% or the value of IC50 was more than 200 nM.)"},
      {"smiles": "CN(C)c1nc(N[C@H]2CC[C@@H](NC(=S)NC3CCCCCCCCCCC3)CC2)nc2c1CCCC2", "note": "[compound 2026]", "class": "3 (Class 3 The value of percent of control at 10^−7 M was more than 60% or the value of IC50 was more than 200 nM.)"}
    ]},
    {"test_system": "MCH receptors", "assay": "MCH receptor activity class (method not given)", "details": "activity class 1-3: percent of control at 10^-7 M or IC50", "values": [
      {"smiles": "COc1ccccc1OC(=O)N[C@H]1CC[C@@H](Nc2nc3c(c(N(C)C)n2)CCCC3)CC1", "note": "[compound 1584]", "class": "3 (Class 3 The value of percent of control at 10^−7 M was more than 60% or the value of IC50 was more than 200 nM.)"},
      {"smiles": "CN(C)c1nc(N[C@H]2CC[C@@H](NC(=O)Nc3ccccc3Cl)CC2)nc2c1CCCC2", "note": "[compound 1659]", "class": "3 (Class 3 The value of percent of control at 10^−7 M was more than 60% or the value of IC50 was more than 200 nM.)"},
      {"smiles": "Cc1ccc(OC(=O)NC[C@H]2CC[C@@H](Nc3nccc(N(C)C)n3)CC2)cc1", "note": "[compound 1654]", "class": "3 (Class 3 The value of percent of control at 10^−7 M was more than 60% or the value of IC50 was more than 200 nM.)"},
      {"smiles": "CC(NC(=O)N[C@H]1CC[C@@H](Nc2nc3c(c(N(C)C)n2)CCCC3)CC1)c1ccccc1", "note": "(relative stereo) [compound 1706]", "class": "3 (Class 3 The value of percent of control at 10^−7 M was more than 60% or the value of IC50 was more than 200 nM.)"}
    ]},
    {"test_system": "MCH receptors", "assay": "MCH receptor activity class (method not given)", "details": "activity class per percent of control at 10^-7 M or IC50", "values": [
      {"smiles": "COc1cc(CNC[C@H]2CC[C@@H](Nc3cc(N(C)C)c4ccccc4n3)CC2)cc(OC)c1OC", "note": "[compound 1136]", "class": "3 (Class 3 The value of percent of control at 10^−7 M was more than 60% or the value of IC50 was more than 200 nM.)"},
      {"smiles": "COc1cc(CN[C@H]2CC[C@@H](Nc3cc(N(C)C)c4ccccc4n3)CC2)ccc1O", "note": "[compound 1120]", "class": "3 (Class 3 The value of percent of control at 10^−7 M was more than 60% or the value of IC50 was more than 200 nM.)"},
      {"smiles": "CN(C)c1nc(N[C@H]2CC[C@@H](CNC(=O)c3ccccc3Cc3ccccc3)CC2)nc2c1CCCC2", "note": "[compound 1072]", "class": "3 (Class 3 The value of percent of control at 10^−7 M was more than 60% or the value of IC50 was more than 200 nM.)"},
      {"smiles": "CCn1c2ccccc2c2cc(CNC[C@H]3CC[C@@H](Nc4cc(N(C)C)c5ccccc5n4)CC3)ccc21", "note": "[compound 1152]", "class": "3 (Class 3 The value of percent of control at 10^−7 M was more than 60% or the value of IC50 was more than 200 nM.)"}
    ]},
    {"test_system": "MCH receptors", "assay": "MCH receptor activity class (method not given)", "details": "class 1-3 by percent of control at 10^-7 M or IC50", "values": [
      {"smiles": "CN(C)c1nc(N[C@H]2CC[C@@H](NC(=O)C(C)(C)Oc3ccc(Cl)cc3)CC2)nc2c1CCCC2", "note": "[compound 575]", "class": "3 (Class 3 The value of percent of control at 10^−7 M was more than 60% or the value of IC50 was more than 200 nM.)"}
    ]},
    {"test_system": "MCH receptors", "assay": "MCH receptor activity class (method not given)", "details": "class by percent of control at 10^-7 M or IC50", "values": [
      {"smiles": "CC(NC(=O)N[C@H]1CC[C@@H](Nc2nccc(N(C)C)n2)CC1)c1ccccc1", "note": "(relative stereo) [compound 2226]", "class": "3 (Class 3 The value of percent of control at 10^−7 M was more than 60% or the value of IC50 was more than 200 nM.)"},
      {"smiles": "CCCCCNC(=O)N[C@H]1CC[C@@H](Nc2cc(N(C)C)c3ccccc3n2)CC1", "note": "[compound 2133]", "class": "3 (Class 3 The value of percent of control at 10^−7 M was more than 60% or the value of IC50 was more than 200 nM.)"},
      {"smiles": "CC(NC(=O)N[C@H]1CC[C@@H](Nc2cc(N(C)C)c3ccccc3n2)CC1)c1ccc(Br)cc1", "note": "(relative stereo) [compound 2158]", "class": "3 (Class 3 The value of percent of control at 10^−7 M was more than 60% or the value of IC50 was more than 200 nM.)"},
      {"smiles": "CN(C)c1ccnc(N[C@H]2CC[C@@H](NC(=O)c3cccc(C(F)(F)F)c3F)CC2)n1", "note": "[compound 282]", "class": "3 (Class 3 The value of percent of control at 10^−7 M was more than 60% or the value of IC50 was more than 200 nM.)"},
      {"smiles": "COc1cc(C(=O)NC[C@H]2CC[C@@H](Nc3nccc(N(C)C)n3)CC2)ccc1[N+](=O)[O-]", "note": "[compound 941, N-[(cis-4-{[4-(dimethylamino)pyrimidin-2-yl]amino}cyclohexyl)methyl]-3-methoxy-4-nitrobenzamide]", "class": "1 (Class 1: The value of percent of control at 10^−7 M was less than 40% or the value of IC50 was less than 50 nM.)"},
      {"smiles": "Cc1ccc(C(=O)N[C@H]2CC[C@@H](Nc3nccc(N(C)C)n3)CC2)cc1F", "note": "[compound 292]", "class": "3 (Class 3 The value of percent of control at 10^−7 M was more than 60% or the value of IC50 was more than 200 nM.)"},
      {"smiles": "COc1cc(C(=O)N[C@H]2CC[C@@H](Nc3nc4c(c(N(C)C)n3)CCCC4)CC2)ccc1[N+](=O)[O-]", "note": "[compound 966]", "class": "1 (Class 1: The value of percent of control at 10^−7 M was less than 40% or the value of IC50 was less than 50 nM.)"},
      {"smiles": "CN(C)c1cc(N[C@H]2CC[C@@H](CNCc3ccccc3OC(F)(F)F)CC2)nc2ccccc12", "note": "[compound 1168]", "class": "3 (Class 3 The value of percent of control at 10^−7 M was more than 60% or the value of IC50 was more than 200 nM.)"},
      {"smiles": "CN(C)c1cc(N[C@H]2CC[C@@H](NC(=O)Nc3ccc4c(c3)OCO4)CC2)nc2ccccc12", "note": "[compound 2148]", "class": "3 (Class 3 The value of percent of control at 10^−7 M was more than 60% or the value of IC50 was more than 200 nM.)"},
      {"smiles": "CN(C)c1nc(N[C@H]2CC[C@@H](CNC(=O)c3c(F)cccc3Cl)CC2)nc2c1CCCC2", "note": "[compound 667]", "class": "2 (Class 2: The value of percent of control at 10^−7 M was from 40% to 60% or the value of IC′50 was from 50 nM to 200 nM.)"},
      {"smiles": "CN(C)c1nc(N[C@H]2CC[C@@H](NC(=O)C3CCCC[C@H]3C(=O)c3ccccc3)CC2)nc2c1CCCC2", "note": "(some centres unmarked) [compound 969]", "class": "3 (Class 3 The value of percent of control at 10^−7 M was more than 60% or the value of IC50 was more than 200 nM.)"},
      {"smiles": "CCCNC(=O)N[C@H]1CC[C@@H](Nc2nc3c(c(N(C)C)n2)CCCC3)CC1", "note": "[compound 1837]", "class": "3 (Class 3 The value of percent of control at 10^−7 M was more than 60% or the value of IC50 was more than 200 nM.)"},
      {"smiles": "CN(C)c1cc(N[C@H]2CC[C@@H](CNCc3ccc4c(c3)OCO4)CC2)nc2ccccc12", "note": "[compound 1182]", "class": "3 (Class 3 The value of percent of control at 10^−7 M was more than 60% or the value of IC50 was more than 200 nM.)"},
      {"smiles": "CCCCc1ccc(NC(=O)N[C@H]2CC[C@@H](Nc3cc(N(C)C)c4ccccc4n3)CC2)c(C)c1", "note": "[compound 2165]", "class": "3 (Class 3 The value of percent of control at 10^−7 M was more than 60% or the value of IC50 was more than 200 nM.)"},
      {"smiles": "CN(C)c1ccnc(N[C@H]2CC[C@@H](NC(=S)Nc3cccc4ccccc34)CC2)n1", "note": "[compound 2264]", "class": "3 (Class 3 The value of percent of control at 10^−7 M was more than 60% or the value of IC50 was more than 200 nM.)"},
      {"smiles": "CC(=O)c1cccc(NC(=O)N[C@H]2CC[C@@H](Nc3nc4c(c(N(C)C)n3)CCCC4)CC2)c1", "note": "[compound 1806]", "class": "3 (Class 3 The value of percent of control at 10^−7 M was more than 60% or the value of IC50 was more than 200 nM.)"},
      {"smiles": "CN(C)c1cc(N[C@H]2CC[C@@H](CNCCc3ccc(Br)cc3)CC2)nc2ccccc12", "note": "[compound 1463]", "class": "3 (Class 3 The value of percent of control at 10^−7 M was more than 60% or the value of IC50 was more than 200 nM.)"},
      {"smiles": "CN(C)c1cc(N[C@H]2CC[C@@H](NC(=O)Cc3cccc(Oc4ccccc4)c3)CC2)nc2ccccc12", "note": "[compound 727]", "class": "3 (Class 3 The value of percent of control at 10^−7 M was more than 60% or the value of IC50 was more than 200 nM.)"}
    ]},
    {"test_system": "MCH receptors", "assay": "MCH receptor activity class (method not given)", "details": "class by percent of control at 10^−7 M or IC50", "values": [
      {"smiles": "Cc1cnc(N[C@H]2CC[C@@H](C(=O)Nc3cccc(F)c3)CC2)nc1N(C)C", "note": "[compound 2784, cis-4-{[4-(dimethylamino)-5-methylpyrimidin-2-yl]amino}-N-(3-fluorophenyl)cyclohexanecarboxamide]", "class": "2 (Class 2: The value of percent of control at 10^−7 M was from 40% to 60% or the value of IC′50 was from 50 nM to 200 nM.)"},
      {"smiles": "Cc1cnc(N[C@H]2CC[C@@H](NC(=O)c3cc(Br)cc(Br)c3)CC2)nc1N(C)C", "note": "[compound 2933]", "class": "1 (Class 1: The value of percent of control at 10^−7 M was less than 40% or the value of IC50 was less than 50 nM.)"},
      {"smiles": "COc1cccc(N(C)C(=O)N[C@H]2CC[C@@H](Nc3ncc(C)c(N(C)C)n3)CC2)c1", "note": "[compound 3028, N′-(cis-4-{[4-(dimethylamino)-5-methylpyrimidin-2-yl]amino}cyclohexyl)-N-(3-methoxyphenyl)-N-methylurea]", "class": "1 (Class 1: The value of percent of control at 10^−7 M was less than 40% or the value of IC50 was less than 50 nM.)"},
      {"smiles": "Cc1ccc(C(=O)N[C@H]2CC[C@@H](Nc3nc(C)c(C)c(N(C)C)n3)CC2)s1", "note": "[compound 2858]", "class": "1 (Class 1: The value of percent of control at 10^−7 M was less than 40% or the value of IC50 was less than 50 nM.)"},
      {"smiles": "Cc1cc(C(=O)N[C@H]2CC[C@@H](Nc3ncc(C)c(N(C)C)n3)CC2)ccc1Br", "note": "[compound 2920, 4-bromo-N-(cis-4-{[4-(dimethylamino)-5-methylpyrimidin-2-yl]amino}cyclohexyl)-3-methylbenzamide]", "class": "1 (Class 1: The value of percent of control at 10^−7 M was less than 40% or the value of IC50 was less than 50 nM.)"},
      {"smiles": "Cc1cnc(N[C@H]2CC[C@@H](NC(=O)C3(c4ccc(Cl)cc4Cl)CC3)CC2)nc1N(C)C", "note": "[compound 2871]", "class": "1 (Class 1: The value of percent of control at 10^−7 M was less than 40% or the value of IC50 was less than 50 nM.)"}
    ]}
  ]
}
